Reference: PubChem BioAssay AID248 (DTP/NCI, 2004)
Where “and” joins values, the source holds several entries; their conditions need not be identical. Equal entries are not always repeated. Inconclusive results and toxic doses are left out. Cut-off read from the data, not from the text of the source: active = T/C of 150% or more; inactive = T/C below 125%.

Tested on: L1210 leukemia ip in BDF1 mice, survival T/C
Assay: NCI In Vivo Anticancer Drug Screen. Data for tumor model L1210 Leukemia (intraperitoneal) in B6D2F1 (BDF1) mice
Conditions: endpoint: mean survival time, higher = longer survival
How it was run: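 Read-out is survival time, reported as the treated-group measurement over the vehicle-control measurement.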

[1] = dose: 100.0 mg/kg/injection, schedule: Q04DX003 (ip), vehicle: saline with Tween-80
[2] = dose: 200.0 mg/kg/injection, schedule: Q04DX003 (ip), vehicle: saline with Tween-80
[3] = dose: 400.0 mg/kg/injection, schedule: Q04DX003 (ip), vehicle: saline with Tween-80
[4] = dose: 12.5 mg/kg/injection, schedule: Q04DX003 (ip), vehicle: Klucel (hydroxypropylcellulose) (HPC)
[5] = dose: 50.0 mg/kg/injection, schedule: Q01DX001 (ip), vehicle: carboxymethylcellulose (CMC)
[6] = dose: 100.0 mg/kg/injection, schedule: Q01DX001 (ip), vehicle: carboxymethylcellulose (CMC)
[7] = dose: 100.0 mg/kg/injection, schedule: Q01DX009 (ip), vehicle: saline with Tween-80
[8] = dose: 200.0 mg/kg/injection, schedule: Q01DX009 (ip), vehicle: saline with Tween-80
[9] = dose: 400.0 mg/kg/injection, schedule: Q01DX009 (ip), vehicle: saline with Tween-80
[10] = dose: 50.0 mg/kg/injection, schedule: Q01DX009 (ip), vehicle: saline with Tween-80
[11] = dose: 100.0 mg/kg/injection, schedule: Q01DX001 (ip), vehicle: saline with Tween-80
[12] = dose: 200.0 mg/kg/injection, schedule: Q01DX001 (ip), vehicle: saline with Tween-80
[13] = dose: 200.0 mg/kg/injection, schedule: Q04DX002 (ip), vehicle: saline with Tween-80
[14] = dose: 400.0 mg/kg/injection, schedule: Q04DX002 (ip), vehicle: saline with Tween-80
[15] = dose: 100.0 mg/kg/injection, schedule: Q01DX001 (ip), vehicle: saline
[16] = dose: 200.0 mg/kg/injection, schedule: Q01DX001 (ip), vehicle: saline
[17] = dose: 400.0 mg/kg/injection, schedule: Q01DX001 (ip), vehicle: saline
[18] = dose: 100.0 mg/kg/injection, schedule: Q04DX003 (ip), vehicle: Klucel (hydroxypropylcellulose) (HPC)
[19] = dose: 200.0 mg/kg/injection, schedule: Q04DX003 (ip), vehicle: Klucel (hydroxypropylcellulose) (HPC)
[20] = dose: 400.0 mg/kg/injection, schedule: Q04DX003 (ip), vehicle: Klucel (hydroxypropylcellulose) (HPC)

Measured: T/C

COC(=O)NC1CC2C=CC1C1C=CC21 (configuration not stated)
inactive: [1] 92 % of control | [2] 91 % of control | [3] 100 % of control

Cc1cccc(C[As](=O)(O)O)c1
inactive: [4] 97 % of control | dose: 25.0 mg/kg/injection, schedule: Q04DX003 (ip), vehicle: Klucel (hydroxypropylcellulose) (HPC) 111 % of control

C=CCC(O)C=C (configuration not stated)
inactive: [5] 89 % of control | [6] 92 % of control

Nc1ncc(Br)cc1Br
inactive: [7] 94 % of control | [1] 101 % of control | [8] 108 % of control | [2] 95 % of control | [9] 116 % of control | [3] 97 % of control

NC(CCl)=NCCCN1CCOCC1
inactive: dose: 100.0 mg/kg/injection, schedule: Q04DX002 (ip), vehicle: saline 114 % of control | dose: 200.0 mg/kg/injection, schedule: Q04DX002 (ip), vehicle: saline 97 % of control

O=C(O)c1c[nH]n2c(=S)ncnc12
inactive: [10] 97 % of control | [7] 96 % of control and 103 % of control | [1] 96 % of control | [8] 102 % of control and 103 % of control | [2] 94 % of control | [9] 101 % of control

Clc1ncn[nH]1
inactive: dose: 100.0 mg/kg/injection, schedule: Q04DX003 (ip), vehicle: saline sonified 101 % of control | dose: 200.0 mg/kg/injection, schedule: Q04DX003 (ip), vehicle: saline sonified 106 % of control | dose: 400.0 mg/kg/injection, schedule: Q04DX003 (ip), vehicle: saline sonified 100 % of control

O=C(O)CCCC1OCCO1
inactive: [11] 98 % of control | [12] 95 % of control | dose: 400.0 mg/kg/injection, schedule: Q01DX001 (ip), vehicle: saline with Tween-80 101 % of control

CC(C)(C)c1cc(O)cc(C(C)(C)C)c1
inactive: dose: 100.0 mg/kg/injection, schedule: Q04DX002 (ip), vehicle: saline with Tween-80 100 % of control | [13] 97 % of control | [14] 100 % of control

O=[N+]([O-])c1ccc(/C=N\NC(=S)Nc2ccc3cn[nH]c3c2)cc1
inactive: [5] 91 % of control | [6] 97 % of control | dose: 200.0 mg/kg/injection, schedule: Q01DX001 (ip), vehicle: carboxymethylcellulose (CMC) 97 % of control | dose: 400.0 mg/kg/injection, schedule: Q01DX001 (ip), vehicle: carboxymethylcellulose (CMC) 105 % of control

CCCCCCNC(=O)Nc1ccc(Cl)c(Cl)c1
inactive: [15] 98 % of control | [16] 101 % of control | [17] 95 % of control

O=c1[nH]c(-c2ccccc2N=NN2CCCCC2)nc2ccccc12
inactive: dose: 25.0 mg/kg/injection, schedule: Q04DX002 (ip), vehicle: saline with Tween-80 100 % of control | dose: 50.0 mg/kg/injection, schedule: Q04DX002 (ip), vehicle: saline with Tween-80 103 % of control | [13] 103 % of control | [14] 88 % of control

OCNC(=S)SSC(=S)NCO
inactive: dose: 100.0 mg/kg/injection, schedule: Q04DX003 (ip), vehicle: saline 96 % of control | dose: 200.0 mg/kg/injection, schedule: Q04DX003 (ip), vehicle: saline 98 % of control | dose: 400.0 mg/kg/injection, schedule: Q04DX003 (ip), vehicle: saline 98 % of control

CSCCOC(=O)C1C2CCC(O2)C1C(=O)O (configuration not stated)
inactive: [4] 104 % of control

CC(C)OC(=O)Nc1cccc(C(F)(F)F)c1
inactive: dose: 100.0 mg/kg/injection, schedule: Q04DX002 (ip), vehicle: Klucel (hydroxypropylcellulose) (HPC) 103 % of control | dose: 200.0 mg/kg/injection, schedule: Q04DX002 (ip), vehicle: Klucel (hydroxypropylcellulose) (HPC) 88 % of control | dose: 400.0 mg/kg/injection, schedule: Q04DX002 (ip), vehicle: Klucel (hydroxypropylcellulose) (HPC) 106 % of control

CC(=O)SCC(CSC(C)=O)c1nncc2ccccc12
inactive: [15] 95 % of control

O=C(O)C(c1cc(Cl)co1)N1C(=O)c2ccccc2C1=O (configuration not stated)
inactive: [18] 103 % of control | [19] 101 % of control | [20] 103 % of control

O=C1NCC(Nc2ccccc2Cl)C(=O)N1 (configuration not stated)
inactive: dose: 100.0 mg/kg/injection, schedule: Q01DX Z (ip), vehicle: saline 96 % of control

N=C(N)COc1ccccc1
inactive: dose: 100.0 mg/kg/injection, schedule: Q01DX001 (ip), vehicle: saline sonified 101 % of control | dose: 200.0 mg/kg/injection, schedule: Q01DX001 (ip), vehicle: saline sonified 97 % of control | dose: 400.0 mg/kg/injection, schedule: Q01DX001 (ip), vehicle: saline sonified 95 % of control

O=C1CN(CO)C(=O)CN1CO
inactive: dose: 44.0 mg/kg/injection, schedule: Q01DX009 (ip), vehicle: saline 105 % of control | dose: 66.0 mg/kg/injection, schedule: Q01DX009 (ip), vehicle: saline 99 % of control | dose: 150.0 mg/kg/injection, schedule: Q01DX009 (ip), vehicle: saline 108 % of control | dose: 200.0 mg/kg/injection, schedule: Q01DX009 (ip), vehicle: saline 105 % of control | dose: 400.0 mg/kg/injection, schedule: Q01DX009 (ip), vehicle: saline 106 % of control

O=C(SCCN1CCCC1)C(O)(c1ccccc1)C1CCCC1 (configuration not stated)
inactive: dose: 75.0 mg/kg/injection, schedule: Q01DX001 (ip), vehicle: carboxymethylcellulose (CMC) 92 % of control | dose: 150.0 mg/kg/injection, schedule: Q01DX001 (ip), vehicle: carboxymethylcellulose (CMC) 96 % of control | dose: 300.0 mg/kg/injection, schedule: Q01DX001 (ip), vehicle: carboxymethylcellulose (CMC) 96 % of control

O=C(O)c1cc(O)ccc1O
inactive: [1] 100 % of control | [2] 97 % of control

Nc1ccccc1N/N=C/c1ccccc1
inactive: [15] 101 % of control | [16] 101 % of control | [17] 94 % of control

O=C1C(=O)c2ccccc2C(O)=C1CN1CCC1
inactive: [11] 95 % of control | [12] 95 % of control

Cc1ccc(S(=O)(=O)N(C)c2cc(Cl)c(C#N)c(Cl)c2)cc1
inactive: dose: 100.0 mg/kg/injection, schedule: Q01DX001 (ip), vehicle: Klucel (hydroxypropylcellulose) (HPC) 96 % of control | [18] 102 % of control | dose: 200.0 mg/kg/injection, schedule: Q01DX001 (ip), vehicle: Klucel (hydroxypropylcellulose) (HPC) 96 % of control | [19] 93 % of control and 92 % of control | dose: 400.0 mg/kg/injection, schedule: Q01DX001 (ip), vehicle: Klucel (hydroxypropylcellulose) (HPC) 89 % of control | [20] 97 % of control and 91 % of control

Cc1cc(C)c2[nH]c(=O)c(C)c(C)c2c1
inactive: dose: 100.0 mg/kg/injection, schedule: Q01DX001 (ip), vehicle: other 104 % of control | dose: 200.0 mg/kg/injection, schedule: Q01DX001 (ip), vehicle: other 95 % of control | dose: 400.0 mg/kg/injection, schedule: Q01DX001 (ip), vehicle: other 95 % of control

CC1(CCCOc2ccc(NC(=O)CBr)cc2)N=C(N)N=C(N)N1c1ccccc1 (configuration not stated)
inactive: dose: 5.0 mg/kg/injection, schedule: Q01DX001 (ip), vehicle: saline 97 % of control | dose: 10.0 mg/kg/injection, schedule: Q01DX001 (ip), vehicle: saline 92 % of control | dose: 20.0 mg/kg/injection, schedule: Q01DX001 (ip), vehicle: saline 91 % of control | dose: 40.0 mg/kg/injection, schedule: Q01DX001 (ip), vehicle: saline 91 % of control | dose: 80.0 mg/kg/injection, schedule: Q01DX001 (ip), vehicle: saline 87 % of control

O=C1c2ccccc2C(=O)N1C1CCC(O)CC1 (configuration not stated)
inactive: dose: 25.0 mg/kg/injection, schedule: Q01DX009 (ip), vehicle: saline with Tween-80 101 % of control | dose: 25.0 mg/kg/injection, schedule: Q04DX003 (ip), vehicle: saline with Tween-80 107 % of control | [10] 93 % of control | dose: 50.0 mg/kg/injection, schedule: Q04DX003 (ip), vehicle: saline with Tween-80 102 % of control | [11] 103 % of control | [7] 103 % of control | [1] 102 % of control
